These results are taken from publication PMC2033597, “The Arg-Gly-Asp-containing peptide, rhodostomin, inhibits in vitro cell adhesion to extracellular matrices and platelet aggregation caused by saos-2 human osteosarcoma cells” (British Journal of Cancer, 1995).

Like-named read-outs stand apart in the source and are kept apart here.

The test system of assay [1] is Saos-2 cell adhesion to RGD-dependent ECM. The assay can be described thus: Saos-2 cell adhesion to RGD-dependent ECM (overall). Type of assay: cell-based, human. The following applies: fibronectin, vitronectin, collagen type I. The text has this: Brils JownW d Canmer (15) 71, 265-270 ? 1995 S9okon Press Al rghts reserved 0007-0920/95 $9.00 V The Arg-Gly-Asp-containing peptide, rhodostomin, inhibits in vitro cell adhesion to extracellular matrices and platelet aggregation caused by Saos-2 human osteosarcoma cells H-S Chiang', R-S Yang2 and T-F Huang' 'Pharmacological Institute and 'Department of Orthopaedics, College of Medicine, National Taiwan UniversitY, Taipei, Taiwan. Sumary Saos-2 cells, derived from a primary human osteosarcoma, caused dose-dependent platelet aggrega- tion in heparinised human platelet-rich plasma. […] The cell suspension shortened the plasma recalcification times of normal, factor VIII-deficient and factor IX-deficient human plasmas in a dose- dependent manner. […] Moreover, a monoclonal antibody (MAb) against human tissue factor completely abolished TCIPA. […] Keywords: osteosarcoma; platelet aggregation; tissue factor: integrin; extracellular matrix: Arg-Gly-Asp- containing peptide The formation of a metastatic lesion is the result of a com- plex series of events called the 'metastatic cascade'. Following intravasation, circulating tumour cells interact with a variety of host cells such as effectors of the cellular immune res- ponses, endothelial cells and platelets. The interaction of tumour cells and host platelets may promote the metastatic process (Honn et al., 1992). […]

Assay [2] relates to Saos-2 tumour cell-induced platelet aggregation in heparinised human platelet-rich plasma. Type of assay: cell-based. The following applies: for IC50: heparinised human PRP preincubated with peptide at 37C for 2 min, then Saos-2 cells, n = 6, read-out: IC50 for inhibition of Saos-2 TCIPA. The text has this:
Brils JownW d Canmer (15) 71, 265-270 ? 1995 S9okon Press Al rghts reserved 0007-0920/95 $9.00 V The Arg-Gly-Asp-containing peptide, rhodostomin, inhibits in vitro cell adhesion to extracellular matrices and platelet aggregation caused by Saos-2 human osteosarcoma cells H-S Chiang', R-S Yang2 and T-F Huang' 'Pharmacological Institute and 'Department of Orthopaedics, College of Medicine, National Taiwan UniversitY, Taipei, Taiwan. Sumary Saos-2 cells, derived from a primary human osteosarcoma, caused dose-dependent platelet aggrega- tion in heparinised human platelet-rich plasma. […] The cell suspension shortened the plasma recalcification times of normal, factor VIII-deficient and factor IX-deficient human plasmas in a dose- dependent manner. […] Moreover, a monoclonal antibody (MAb) against human tissue factor completely abolished TCIPA. […] Keywords: osteosarcoma; platelet aggregation; tissue factor: integrin; extracellular matrix: Arg-Gly-Asp- containing peptide The formation of a metastatic lesion is the result of a com- plex series of events called the 'metastatic cascade'. Following intravasation, circulating tumour cells interact with a variety of host cells such as effectors of the cellular immune res- ponses, endothelial cells and platelets. The interaction of tumour cells and host platelets may promote the metastatic process (Honn et al., 1992). Indeed, there is evidence that the incidence of lymph node metastasis caused by ten cell lines, from rat renal carcinoma, in vivo correlates well with their ability to induce platelet aggregation in vitro (Pearlstein et al., 1980). Platelets may enhance tumour cell adhesion to endothelial cells and subendothelial surfaces during the haematogenous metastasis process. The cell-cell or cell-extracellular matrix (ECM) interactions of both normal and tumour cells have been proven to be mediated by a variety of plasma memb- rane receptors including the integrin family (Hynes et al., 1987). Integrins are transmembrane proteins which link the ECM with the cell cytoskeleton. Such linkage enables cellular attachment to substrata and forms focal adhesion plaques in distinct plasma membrane regions which establish contact with the matrix (Grunicke, 1990). […] Purified components from snake venoms have been widely studied and found to affect platelet function, including trigramin-like anti-platelet peptides (Huang et al., 1987a, 1991a,b; Shebuski et al., 1989; Rucinski et al., 1990). Trigra- min, an RGD-containing peptide purified from venom of the Trimeresurus gramineus snake, is a specific antagonist of platelet membrane […] (Huang et al., 1987a, 1989). […] These peptides all contain the RGD sequence, are rich in cysteine and bind with high affinity to the surface of platelets. The in vitro metastatic characterisation of osteosarcoma is not yet well understood. In the present study, we examined in vitro the TCIPA caused by Saos-2 human osteosarcoma cells. We probed Saos-2 TCIPA with a variety of inhibitors and monoclonal antibodies in order to characterise fully the mechanism of this phenomenon. […] Materals and metbods Materials Saos-2 human osteosarcoma cells were obtained from ATCC (American Type Culture Collection) Laboratory. Crude venom of Agkistrodon rhodostoma (or Calloselasma rhodos- toma) was purchased from Latoxan (Rosans, France) and stored at -20?C. Rhodostomin was purified from venom of A. rhodostoma as previously described (Huang et al., 1989, 1990). GRGDS was purchased from Peninsula Laboratories, CA, USA. Gly-Arg-Gly-Glu-Ser (GRGES) was synthesised by the Biochemical Institute, College of Medicine, National Taiwan University. Apyrase (grade III), heparin, hirudin (grade IV from leeches), fibronectin (from bovine plasma), vitronectin (from human plasma), laminin (from basement membrane of mouse sarcoma), collagen type I (from calf skin) and type IV were obtained from Sigma (St Louis, MO, USA). Tissue thromboplastin reagent was Simplastin Excel standard (Organon Teknika, NC, USA). […]

For the compound rhodostomin, in assay [1], the “Potency relative to GRGDS in inhibiting Saos-2 cell adhesion to RGD-dependent ECM, on a molar basis” value is on record as around 1000 fold. Moreover, the IC50 (usually the midpoint of a concentration-inhibition curve) in assay [2] is 0.03 µM. The “Potency relative to GRGDS in inhibiting TCIPA, on a molar basis” value in assay [2] (ratio of IC50 values) is on record as “about 18 000 fold”. Moreover, the “Inhibition of Saos-2 TCIPA” value in assay [2] (rhodostomin, pretreatment of platelets) is “complely inhibited”.
Turning to hirudin, the “Inhibition of Saos-2 TCIPA” value in assay [2] (hirudin 5 U ml-1, PRP preincubated at 37C for 2 min) is on record as “completely inhibited”.
As for `N=C(N)NCCC[C@H](NC(=O)CN)C(=O)NCC(=O)N[C@@H](CC(=O)O)C(=O)N[C@@H](CO)C(=O)O` [GRGDS, Gly-Arg-Gly-Asp-Ser], the IC50 in assay [2] worked out at 560 µM.
With heparin, in assay [2] (heparin raised from 1 to 6 units ml-1 (data not shown)), the “Lag phase preceding platelet aggregation” value is “markedly prolonged”.
Regarding apyrase, in assay [2] (apyrase 0.5 U ml-1 final concentration in PRP, preincubated at 37C for 2 min), the “Inhibition of Saos-2 TCIPA” value was “did not inhibit”. In addition, the “Lag phase preceding TCIPA” value in assay [2] (apyrase 0.5 U ml-1 in PRP) is recorded as “prolonged”.
For the compound “Gly-Arg-Gly-Glu-Ser [GRGES, peptide synthesised by the Biochemical Institute, National Taiwan University]”, the “Inhibition of Saos-2 TCIPA” value in assay [2] (GRGES 1 mg ml-1, pretreatment of platelets) is “no significant effect”.
